Laboratory results as given in PubChem BioAssay (NCI).
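48-hour exposure; five concentrations; linearly interpolated endpoints. The concentration for 50% growth inhibition is given as GI50. TGI marks complete inhibition of growth.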

How the values were obtained:
Experiment in all cases: NCI anticancer screen, dose series, 48 h
SK-MEL-5 melanoma = system: SK-MEL-5 melanoma
SNB-19 CNS = system: SNB-19 CNS
CCRF-CEM leukemia = system: CCRF-CEM leukemia
OVCAR-8 ovarian = system: OVCAR-8 ovarian
DU-145 prostate = system: DU-145 prostate
IGROV1 ovarian = system: IGROV1 ovarian
MCF7 breast = system: MCF7 breast
NCI-H226 lung = system: NCI-H226 lung
HCT-15 colon = system: HCT-15 colon
NCI-H522 lung = system: NCI-H522 lung

SMILES | GI50 (SK-MEL-5 melanoma) [µM] | TGI (SK-MEL-5 melanoma) [µM] | GI50 (SNB-19 CNS) [µM] | TGI (SNB-19 CNS) [µM] | GI50 (CCRF-CEM leukemia) [µM] | TGI (CCRF-CEM leukemia) [µM] | GI50 (OVCAR-8 ovarian) [µM] | TGI (OVCAR-8 ovarian) [µM] | GI50 (DU-145 prostate) [µM] | TGI (DU-145 prostate) [µM] | GI50 (IGROV1 ovarian) [µM] | TGI (IGROV1 ovarian) [µM] | GI50 (MCF7 breast) [µM] | GI50 (NCI-H226 lung) [µM] | TGI (NCI-H226 lung) [µM] | GI50 (HCT-15 colon) [µM] | TGI (HCT-15 colon) [µM] | GI50 (NCI-H522 lung) [µM] | TGI (NCI-H522 lung) [µM] | TGI (MCF7 breast) [µM]
CCOC(=O)c1ccc(N(C=O)CCC(=O)CCl)cc1 | 0.344 | 1.55 | 2.37 | 22.4 | 0.037 | 1.6 | 0.0998 | 11.3 | 0.366 | 13.9 | 0.537 | 8.33 | 0.0532 | 0.297 | 1.36 | 0.0487 | 2.58 | 0.138 | 0.617 | 
Cc1ccc(-c2cc(-c3ccc(C)cc3)nc(N3CCN(CCNc4ccnc5cc(Cl)ccc45)CC3)n2)cc1 | 6.65 | 18.3 | 6.51 | 15 | 1.77 | > 50 | 2.17 | 9.65 | 2.06 | 8.5 | 3.08 | 12.3 | 2.11 | 5.13 | 18.1 | 3.42 | 24.5 | 5.65 | 22 | 13.4
CCCCCCCCCCC[C@@H](C[C@H]1OC(=O)[C@H]1CCCCCC)OC(=O)[C@@H](CC(C)C)NC=O | 2.8 | 10.4 | 5.02 | 25.4 | 1.31 | 76.4 | 2.5 | 15.7 | 16.7 | > 100 | 7.62 | 55.7 | 3.07 | 2.1 | 7.91 | 2.65 | 46.8 | 5.56 | 26.4 | 13.8
O=C(Cc1csc2nc(-c3ccc(Br)cc3)cn12)N/N=C/c1ccc(Cl)cc1Cl | 44.2 | > 100 | 94.6 | > 100 | 40 | > 100 | 18.6 | 50.3 | 26.3 | > 100 | 16 | 45.6 | > 100 | 31.8 | 92.2 | 25.5 | 73.2 | 25.8 | > 100 | > 100
COc1ccc(/C=N\NC(=O)c2ccc3nc(-c4ccc(Cl)cc4)[nH]c3c2)cc1 | 1.89 | 3.88 | 3.13 | 7.95 | 4.9 | > 100 | 3.19 | 11.5 | 1.98 | 4.61 | 1.65 | 3.97 | 1.47 | 1.79 | 4.43 | 3.24 | 12.8 | 7.6 | 81.5 | 3.84
COc1cc(C(=O)O/N=C(\N)Cc2cccc3ccccc23)cc(OC)c1OC | 2.05 | 4.71 | 8.86 | 21.6 | 3.62 | 23.3 | 11.5 | 43.8 | 11.4 | 23.7 | 3.61 | 12.1 | 2.57 | 16.9 | 42.5 | 6.41 | 21.4 | 1.87 | 3.7 | 8.81
CC(C)=CC(=O)N[C@@H]1CC2CCC3C(CC[C@@]4(C)C3CC[C@@H]4C(C)N(C)C)[C@@]2(C)C[C@@H]1O (some centres undefined) | 1.57 | 4.17 | 17.8 | 60.4 | 4.85 | 28.9 | 12.8 | > 53.2 | 10.7 | > 100 | 5.54 | 25.1 | 2.95 | 8.04 | > 41.4 | 1.39 | 5.01 | 7.47 | 31.3 | 21.1
O=c1c2c(=NCCN3CCCC3)cc3c(=O)n(CCCN4CCOCC4)c(=O)c4ccc(c(O)n1CCCN1CCOCC1)c2c4-3 | 0.442 | 0.918 | 0.168 | 2.09 | 0.0532 | 1.59 | 0.1 | > 32.8 | 0.088 | 1.67 | 0.0479 | 1.5 | 0.0752 | 0.155 | 0.83 | < 0.0201 | 0.946 | 0.102 | 0.438 | 1.13
O=C1/C(=C/c2ccc(Cl)cc2)CN(C(=O)CCN2CCC(=NO)CC2)C/C1=C\c1ccc(Cl)cc1 | 1.66 | 3.1 | 0.817 | 2.17 | 0.317 | > 22.3 | 0.823 | 2.62 | 1.28 | 2.6 | 0.807 | 2.05 | 0.284 | 1.35 | 2.75 | 0.383 | 1.38 | 0.731 | 2.29 | 1.59
Nc1nccc2c1ccn2-c1cccc(NC(=O)c2ccc(N3CCOCC3)c(C(F)(F)F)c2)c1 | 0.386 | 1.75 | 1.58 | > 50 | 1.01 | > 50 | 1.34 | 10.3 | 1.22 | 4.15 | 0.869 | > 46.5 | 0.181 | 1.74 | 18.1 | 0.443 | > 22.7 | 0.288 | 2.45 | > 18.5
CCCCCCCCNC(C)C(O)c1ccc(SC(C)C)cc1 (centres undefined) | 1.62 | 2.99 | 1.64 | 3.28 | 2.44 | 7.19 |  |  | 1.86 | 3.27 | 1.81 | 3.38 | 1.8 | 1.81 | 3.85 | 1.7 | 3.29 | 1.43 | 2.95 | 3.32
Oc1ccc(Oc2cnc3cc(Cl)ccc3n2)cc1 | 28.6 | > 100 | 91.6 | > 100 | 1.62 | 79.9 | > 100 | > 100 | 42.4 | > 100 |  |  | 38.1 | 55.4 | > 100 | 33.7 | > 100 | 19.1 | > 100 | > 100
COc1cc2cnc(-c3ccccc3)cc2cc1OC |  | 27.7 |  | > 100 |  |  |  | > 100 |  | > 100 |  | 49.5 |  |  | 45.8 |  | 46.5 |  | 53 | > 100
